In ChEMBL document CHEMBL5500384, “New synergistic benzoquinone scaffolds as inhibitors of mycobacterial cytochrome bc1 complex to treat multi-drug resistant tuberculosis” (Eur J Med Chem, 2024):

Legend:
[1] = Cytotoxicity against african green monkey Vero cells assessed as cell viability at 3.125 ug/ml by MTT assay; format: toxicity, cell-based; conditions: chlorocebus sabaeus, at 3.125 µg/mL, read-out: Activity
[2] = Hepatotoxicity in Albino mouse assessed as change in central vein at 50 to 2000 mg/kg, po measured after 14 days; format: toxicity, organism-based; conditions: in vivo, 336 h, dose 50-2000 mg/kg, time 14 day
[3] = Renal toxicity in Albino mouse assessed as structural absorbability abnormalities at 50 to 2000 mg/kg, po measured after 14 days; format: organism-based; conditions: in vivo, 336 h, dose 50-2000 mg/kg, time 14 day
[4] = Pulmonary toxicity in Albino mouse assessed as change in squamous pneumocytes at 50 to 2000 mg/kg, po measured after 14 days; format: organism-based; conditions: in vivo, 336 h, dose 50-2000 mg/kg, time 14 day
[5] = Renal toxicity in Albino mouse assessed as change in proximal convoluted tubules at 50 to 2000 mg/kg, po measured after 14 days; format: organism-based; conditions: in vivo, 336 h, dose 50-2000 mg/kg, time 14 day
[6] = Renal toxicity in Albino mouse assessed as change in Bowman's capsule at 50 to 2000 mg/kg, po measured after 14 days; format: organism-based; conditions: in vivo, 336 h, dose 50-2000 mg/kg, time 14 day
[7] = Renal toxicity in Albino mouse assessed as change in distal convoluted tubules at 50 to 2000 mg/kg, po measured after 14 days; format: organism-based; conditions: in vivo, 336 h, dose 50-2000 mg/kg, time 14 day
[8] = Hepatotoxicity in Albino mouse assessed as change in portal tracks at 50 to 2000 mg/kg, po measured after 14 days; format: toxicity, organism-based; conditions: in vivo, 336 h, dose 50-2000 mg/kg, time 14 day
[9] = Acute toxicity in Albino mouse assessed as change in eosinophils at 50 to 2000 mg/kg, po measured after 14 days (reference value: 3%); format: organism-based; conditions: in vivo, 336 h, dose 50-2000 mg/kg, time 14 day
[10] = Acute toxicity in Albino mouse assessed as change in SGOT count at 50 to 2000 mg/kg, po measured after 14 days (reference value: 42 IU/L); format: organism-based; conditions: in vivo, 336 h, dose 50-2000 mg/kg, time 14 day
[11] = Renal toxicity in Albino mouse assessed as change in renal corpuscles at 50 to 2000 mg/kg, po measured after 14 days; format: organism-based; conditions: in vivo, 336 h, dose 50-2000 mg/kg, time 14 day
[12] = Pulmonary toxicity in Albino mouse assessed as appearance of goblet cells at 50 to 2000 mg/kg, po measured after 14 days; format: organism-based; conditions: in vivo, 336 h, dose 50-2000 mg/kg, time 14 day
[13] = Hepatotoxicity in Albino mouse assessed as change in bile duct at 50 to 2000 mg/kg, po measured after 14 days; format: toxicity, organism-based, Liver; conditions: in vivo, 336 h, dose 50-2000 mg/kg, time 14 day
[14] = Acute toxicity in Albino mouse assessed as change in RBC count measured per million cells at 50 to 2000 mg/kg, po measured after 14 days (reference value: 9.15 microL); format: organism-based, Erythrocyte; conditions: in vivo, 336 h, dose 50-2000 mg/kg, time 14 day
[15] = Acute toxicity in Albino mouse assessed as change in LDH level at 50 to 2000 mg/kg, po measured after 14 days (reference value: 1052 IU/L); format: organism-based; conditions: in vivo, 336 h, dose 50-2000 mg/kg, time 14 day
[16] = Cytotoxicity against african green monkey Vero cells by MTT assay; format: toxicity, cell-based; conditions: chlorocebus sabaeus
[17] = Renal toxicity in Albino mouse assessed as change in tubular capillaries at 50 to 2000 mg/kg, po measured after 14 days; format: organism-based; conditions: in vivo, 336 h, dose 50-2000 mg/kg, time 14 day
[18] = Cytotoxicity against african green monkey Vero cells assessed as cell viability at 6.25 ug/ml by MTT assay; format: toxicity, cell-based; conditions: chlorocebus sabaeus, at 6.25 µg/mL, read-out: Activity
[19] = Renal toxicity in Albino mouse assessed as extravasation of RBC at 50 to 2000 mg/kg, po measured after 14 days; format: organism-based, Erythrocyte; conditions: in vivo, 336 h, dose 50-2000 mg/kg, time 14 day
[20] = Cytotoxicity against african green monkey Vero cells assessed as cell viability at 50 ug/ml by MTT assay; format: toxicity, cell-based; conditions: chlorocebus sabaeus, at 50 µg/mL, read-out: Activity
[21] = Hepatotoxicity in Albino mouse assessed as change in hepatic artery at 50 to 2000 mg/kg, po measured after 14 days; format: toxicity, organism-based, Liver; conditions: in vivo, 336 h, dose 50-2000 mg/kg, time 14 day
[22] = Acute toxicity in po dosed Albino mouse assessed as mortality after 14 days; format: organism-based; conditions: in vivo, time 14 day
[23] = Acute toxicity in Albino mouse assessed as change in ALP level at 50 to 2000 mg/kg, po measured after 14 days (reference value: 28 IU/L); format: organism-based; conditions: in vivo, 336 h, dose 50-2000 mg/kg, time 14 day
[24] = Pulmonary toxicity in Albino mouse assessed as change in alveoli structure at 50 to 2000 mg/kg, po measured after 14 days; format: organism-based; conditions: in vivo, 336 h, dose 50-2000 mg/kg, time 14 day
[25] = Acute toxicity in Albino mouse assessed as change in ESR at 50 to 2000 mg/kg, po measured after 14 days (reference value: 10 millimeter); format: organism-based; conditions: in vivo, 336 h, dose 50-2000 mg/kg, time 14 day
[26] = Acute toxicity in Albino mouse assessed as mortality at 300 mg/kg, po after 5 to 8 hrs; format: organism-based; conditions: in vivo, time 5-8 hrs
[27] = Acute toxicity in Albino mouse assessed as change in neutrophils at 50 to 2000 mg/kg, po measured after 14 days (reference value: 75%); format: organism-based; conditions: in vivo, 336 h, dose 50-2000 mg/kg, time 14 day
[28] = Renal toxicity in Albino mouse assessed as change in renal tubules at 50 to 2000 mg/kg, po measured after 14 days; format: organism-based; conditions: in vivo, 336 h, dose 50-2000 mg/kg, time 14 day
[29] = tested on: Mycobacterium tuberculosis; experiment: Antitubercular activity against Mycobacterium tuberculosis H37Rv incubated for 5 days by microtiter plate method; format: functional; conditions: 120 h, time 5 day
[30] = Cytotoxicity against african green monkey Vero cells assessed as cell viability at 100 ug/ml by MTT assay; format: toxicity, cell-based; conditions: chlorocebus sabaeus, at 100 µg/mL, read-out: Activity
[31] = Acute toxicity in Albino mouse assessed as change in total leucocyte count at 50 to 2000 mg/kg, po measured after 14 days (reference value: 7400 mm3); format: organism-based; conditions: in vivo, 336 h, dose 50-2000 mg/kg, time 14 day
[32] = Cytotoxicity against african green monkey Vero cells assessed as cell viability at 25 ug/ml by MTT assay; format: toxicity, cell-based; conditions: chlorocebus sabaeus, at 25 µg/mL, read-out: Activity
[33] = Acute toxicity in Albino mouse assessed as mortality at 50 mg/kg, po after 14 days; format: organism-based; conditions: in vivo, 336 h, time 14 day
[34] = Acute toxicity in Albino mouse assessed as mortality at 2000 mg/kg, po after 2 to 4 hrs; format: organism-based; conditions: in vivo, time 2-4 hrs
[35] = Hepatotoxicity in Albino mouse assessed as change in portal vein at 50 to 2000 mg/kg, po measured after 14 days; format: toxicity, organism-based; conditions: in vivo, 336 h, dose 50-2000 mg/kg, time 14 day
[36] = Pulmonary toxicity in Albino mouse assessed as appearance of cilia at 50 to 2000 mg/kg, po measured after 14 days; format: organism-based; conditions: in vivo, 336 h, dose 50-2000 mg/kg, time 14 day
[37] = Acute toxicity in Albino mouse assessed as change in serum urea level at 50 to 2000 mg/kg, po measured after 14 days (reference value: 46 mg/dl); format: organism-based; conditions: in vivo, 336 h, dose 50-2000 mg/kg, time 14 day
[38] = Acute toxicity in Albino mouse assessed as change in platelet count at 50 to 2000 mg/kg, po measured after 14 days (reference value: 3.24 mm3); format: organism-based; parameters: unit not given here; conditions: in vivo, 336 h, dose 50-2000 mg/kg, time 14 day
[39] = Cytotoxicity against african green monkey Vero cells assessed as cell viability at 12.5 ug/ml by MTT assay; format: toxicity, cell-based; conditions: chlorocebus sabaeus, at 12.5 µg/mL, read-out: Activity
[40] = Acute toxicity in Albino mouse assessed as change in hemoglobin level at 50 to 2000 mg/kg, po measured after 14 days (reference value: 12.8 g/dl); format: organism-based; conditions: in vivo, 336 h, dose 50-2000 mg/kg, time 14 day
[41] = Pulmonary toxicity in Albino mouse assessed as change in alveolar sacs at 50 to 2000 mg/kg, po measured after 14 days; format: organism-based; conditions: in vivo, 336 h, dose 50-2000 mg/kg, time 14 day
[42] = Acute toxicity in Albino mouse assessed as change in SGPT count at 50 to 2000 mg/kg, po measured after 14 days (reference value: 52 IU/L); format: organism-based; conditions: in vivo, 336 h, dose 50-2000 mg/kg, time 14 day
[43] = Acute toxicity in Albino mouse assessed as change in lymphocytes at 50 to 2000 mg/kg, po measured after 14 days (reference value: 21%); format: organism-based; conditions: in vivo, 336 h, dose 50-2000 mg/kg, time 14 day
[44] = Acute toxicity in Albino mouse assessed as change in serum creatine level at 50 to 2000 mg/kg, po measured after 14 days (reference value: 0.9 mg/dl); format: organism-based; conditions: in vivo, 336 h, dose 50-2000 mg/kg, time 14 day
[45] = Acute toxicity in Albino mouse assessed as change in monocytes at 50 to 2000 mg/kg, po measured after 14 days (reference value: 1%); format: organism-based; conditions: in vivo, 336 h, dose 50-2000 mg/kg, time 14 day
[46] = Pulmonary toxicity in Albino mouse assessed as change in bronchi structure at 50 to 2000 mg/kg, po measured after 14 days; format: organism-based; conditions: in vivo, 336 h, dose 50-2000 mg/kg, time 14 day

For `O=C1C(Cl)=C(N2C(=O)C(Cl)C2c2ccc([N+](=O)[O-])cc2)C(=O)c2ccccc21` (stereo not drawn), the viability at 3.125 ug/ml [1] was 100%, the Activity [2] was “Non-Toxic” and the Activity [3] was “Non-Toxic”. The Activity [4] was “Non-Toxic”, the Activity [5] was “Non-Toxic” and the Activity [6] was “Non-Toxic”. For the same molecule, the Activity [7] was “Non-Toxic”, the Activity [8] was “Non-Toxic” and the Activity [9] was 4%. The Activity [10] was 168.42 IU/L, the Activity [11] was “Non-Toxic” and the Activity [12] was “Non-Toxic”. The Activity [13] was “Non-Toxic”, the Activity [14] was 9.85 and the Activity [15] was 505 IU/L. The Activity [16] was “Dose-Dependent Effect”, the Activity [17] was “Non-Toxic” and the viability at 6.25 ug/ml [18] was 100%. For the same molecule, the Activity [19] was “Non-Toxic”, the viability at 50 ug/ml [20] was 21.4% and the Activity [21] was “Non-Toxic”. For the same molecule, the LD50 at 336 h [22] was 50 mg/kg, the Activity [23] was 429.54 IU/L and the Activity [24] was “Non-Toxic”. The Activity [25] was 15 millimeter/hr, the Activity [26] was “Toxic” and the Activity [27] was 72%. The Activity [28] was “Non-Toxic”, the MIC [29] was 30 µM and the viability at 100 ug/ml [30] was 9.6%. The Activity [31] was 8800 mm3, the viability at 25 ug/ml [32] was 46.2% and the Activity [33] was “Non-Toxic”. The Activity [34] was “Toxic”, the Activity [35] was “Non-Toxic” and the Activity [36] was “Non-Toxic”. For the same molecule, the Activity [37] was 37.75 mg/dL, the Activity [38] was 5.95 and the viability at 12.5 ug/ml [39] was 78%. The Activity [40] was 13.2 g/dL, the Activity [41] was “Non-Toxic” and the Activity [42] was 43.21 IU/L. The Activity [43] was 39%, the Activity [44] was 0.33 mg/dL and the Activity [45] was 1%. The Activity [46] was “Non-Toxic”.

`O=C1C(Cl)=C(N2C(=O)C(Cl)C2c2ccccc2)C(=O)c2ccccc21` (stereo not drawn) gave an MIC [29] of 6.25 µg/mL.

Molecule `O=C1C(Cl)=C(/N=C/c2ccccc2)C(=O)c2ccccc21` has an MIC [29] of 12.5 µg/mL.
